This is an account of results in US20140341895A1, “PSEUDOMONAS AERUGINOSA OprM EPITOPES FOR USE IN DIAGNOSTICS AND THERAPEUTICS” (priority 2011, published 2014).

Assay [1] concerns P. aeruginosa strain MSC06120. The note with it: multidrug resistant P. aeruginosa strain MSC06120; stated as normal values; cited from earlier work.
Assay [2] has as its system OprM outer loops. Kind of assay: rabbit immunization with KLH-conjugated OprM outer loop peptides, sera screened for immune reaction. It counts as in vivo. The note with it: NZW rabbits, 500 μg per injection subcutaneously on days 0, 21, 42, 63, 84, 105; sera screened for immune reaction to OprM outer loops. How it is done: Polyclonal antibodies were produced using each of the OprM outer loops (with surrounding amino acid residues) conjugated to KLH as immunogens. Rabbits were screened prior to antigen injection for background antibodies that recognize the OprM outer loop immunogens to be used (i.e., SEQ ID NOS:3 and 4). Pre-immune rabbit sera was assayed by ELISA for antibodies to the immunogen.
Eight NZW rabbits were immunized on days 0, 21, 42, 63, 84 and 105 subcutaneously with either KLH-conjugated OprM outer loop 1 (SEQ ID NO:3) or outer loop 2 (SEQ ID NO:4) peptides (500 μg per injection). The Day 0 injection was formulated with Titermax while all subsequent injections were formulated with Freund's incomplete adjuvant. The rabbits were bled on days 52 (5 ml serum obtained), 73 (20 ml serum obtained), 94 (20 ml serum obtained), 115 (20 ml serum obtained) and 118 (50 ml serum obtained).

Assay [3] deals with T1, OprM outer loop 1 (SEQ ID NO:3) (Pseudomonas aeruginosa, UniProt Q51487).
T1 construct: made in house; host or cells: chemical peptide synthesis
T1 sequence (Q51487 whole entry, looked up): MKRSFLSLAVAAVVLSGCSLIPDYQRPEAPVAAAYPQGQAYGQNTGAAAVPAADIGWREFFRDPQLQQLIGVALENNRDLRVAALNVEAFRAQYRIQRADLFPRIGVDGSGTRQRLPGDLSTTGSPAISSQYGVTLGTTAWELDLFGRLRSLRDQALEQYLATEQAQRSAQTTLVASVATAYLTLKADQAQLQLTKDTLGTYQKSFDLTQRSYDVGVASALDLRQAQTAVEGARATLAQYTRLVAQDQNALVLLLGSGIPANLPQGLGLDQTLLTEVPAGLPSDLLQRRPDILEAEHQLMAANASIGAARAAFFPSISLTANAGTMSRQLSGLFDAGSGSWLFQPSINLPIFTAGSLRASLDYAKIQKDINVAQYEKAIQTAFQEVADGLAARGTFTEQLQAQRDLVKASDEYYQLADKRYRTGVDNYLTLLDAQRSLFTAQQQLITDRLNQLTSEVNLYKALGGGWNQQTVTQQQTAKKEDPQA
Kind of assay: ELISA of immunized rabbit sera, antigen outer loop 1 peptide. It counts as binding. The note with it: antigen SEQ ID NO:3; four rabbits per immunogen; FIG. 1 and 2. The procedure:
(§1) Sera was assayed by ELISA to measure the amount of anti-OprM antibodies that were induced by the immunization. Purified peptide from either outer loop 1 or outer loop 2 was plated each well of a 96-well plate. A solution of PBS+3% BSA was used for non-specific blocking and sample/control/secondary antibody dilutions. The sample serum was run against a negative control (normal sera) and a positive control (anti-ovalbumin). The signal was detected using HRP conjugated anti-rabbit secondary antibodies and ABTS peroxidase substrate system. The plates were read at a wavelength of 415 nm with a reference at 570 nm.
(In an ELISA, binding on a coated surface is turned into a signal by an enzyme label.)

Assay [4] has as its target T2, OprM outer loop 2 (SEQ ID NO:4) (Pseudomonas aeruginosa, UniProt Q51487).
T2 construct: made in house; host or cells: chemical peptide synthesis
T2 sequence (Q51487 whole entry, looked up): T1 sequence (Q51487 whole entry, looked up)
Kind of assay: ELISA of immunized rabbit sera, antigen outer loop 2 peptide. The format is binding. Particulars: antigen SEQ ID NO:4; four rabbits per immunogen; FIG. 1 and 2. The procedure: as §1

No end group written: not given here.

`NCC[C@H](O)C(=O)N[C@@H]1C[C@H](N)[C@@H](O[C@H]2O[C@H](CN)[C@@H](O)[C@H](O)[C@H]2O)[C@H](O)[C@H]1O[C@H]1O[C@H](CO)[C@@H](O)[C@H](N)[C@H]1O` [amikacin]: the growth inhibitory concentration in assay [1] is 64 µg/mL.

On to `O=C(O)c1cn(C2CC2)c2cc(N3CCNCC3)c(F)cc2c1=O` [ciprofloxacin], for which the growth inhibitory concentration in assay [1] is greater than 256 µg/mL.

“KLH-conjugated OprM outer loop 1 (SEQ ID NO:3): OprM outer loop 1 peptide with surrounding residues (SEQ ID NO:3), N-terminal CKK added, conjugated to keyhole limpet hemocyanin carrier (CKKRLPGDLSTTGSPA; also: conjugated to KLH carrier, site not given here; listed as Pseudomonas aeruginosa)”: in assay [2], the “immune response in immunized rabbits” value was “generated an immune response”. Further, the “antibodies in sera binding to peptide containing outer loop 1 (titer / cross-reactivity), ELISA” value in assay [3] is reported as “high titer”. Further, the “antibodies in sera binding to peptide containing outer loop 2 (titer / cross-reactivity), ELISA” value in assay [4] is on record as 1 rabbit showed a small amount of cross-reactivity.

For the compound “outer loop 2 (SEQ ID NO:4): OprM outer loop 2 peptide with surrounding residues (SEQ ID NO:4), N-terminal CKK added, conjugated to keyhole limpet hemocyanin carrier (CKKSRQLSGLFDAGSG; also: conjugated to KLH carrier, site not given here; listed as Pseudomonas aeruginosa)”, the “immune response in immunized rabbits” value in assay [2] was “generated an immune response”. For the same compound, in assay [3], the “antibodies in sera binding to peptide containing outer loop 1 (titer / cross-reactivity), ELISA” value is recorded as 2 rabbits showed a small amount of cross-reactivity. Moreover, the “antibodies in sera binding to peptide containing outer loop 2 (titer / cross-reactivity), ELISA” value in assay [4] is on record as “high titer”.
